# Source: patent publication US20120189627A1, “Semi-Synthetic GLP-1 Peptide-FC Fusion Constructs, Methods and Uses” (priority 2007, published 2012)
# Ends that are not written are not given here.
# Assays:
# [1] = administered subcutaneously; cited from earlier work
# [2] = type 2 diabetic patients, cited from earlier work
# [3] = molecular target: T1, GLP-1 Receptor (Rattus norvegicus, UniProt P32301); test: LANCE cAMP assay in INS-1E cells; format: cell-based; settings: FIG. 1
# T1 construct: endogenous in cells; host or cells: INS-1E cells
# T1 sequence (P32301 22-463): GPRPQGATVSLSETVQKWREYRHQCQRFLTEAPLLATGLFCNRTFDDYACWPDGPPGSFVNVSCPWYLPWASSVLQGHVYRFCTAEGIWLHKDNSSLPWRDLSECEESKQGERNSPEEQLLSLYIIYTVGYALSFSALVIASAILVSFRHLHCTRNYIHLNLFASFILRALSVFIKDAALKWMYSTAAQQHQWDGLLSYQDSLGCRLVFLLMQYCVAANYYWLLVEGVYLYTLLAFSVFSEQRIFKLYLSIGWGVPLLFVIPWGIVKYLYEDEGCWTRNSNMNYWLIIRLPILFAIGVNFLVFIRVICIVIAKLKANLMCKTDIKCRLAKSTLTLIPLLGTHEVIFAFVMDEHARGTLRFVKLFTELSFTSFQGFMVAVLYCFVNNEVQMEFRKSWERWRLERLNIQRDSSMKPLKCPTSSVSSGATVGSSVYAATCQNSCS
# Procedure: The peptide-conjugates were tested for activity using the cAMP assay which measures cAMP produced upon modulation of adenylyl cyclase activity by GPCRs. • cAMP Assay The LANCE™ cAMP assay (Hemmila I. 1999. LANCE™: Homogeneous Assay Platform for HTS. J Biomol Screen. 4(6), 303-308) is a homogeneous time-resolved fluorescence resonance energy transfer (TR-FRET) immunoassay. The assay is based on the competition between a europium-labeled cAMP tracer and sample cAMP for binding sites on cAMP-specific antibodies labeled with the dye Alexa Fluor® 647. The europium-labeled tracer complex is formed by the tight interaction between Biotin-cAMP and streptavidin labeled with Europium-W8044 chelate. When antibodies are bound to the Eu-SA/b-cAMP tracer, light pulse 340 nm excites the Eu-chelate molecules of the tracer. […] The fluorescence intensity measure at 665 nm will decrease in the presence of cAMP from the test samples and resulting signals will be inversely proportional to the cAMP concentration of a sample (LANCE cAMP manual). • Cells and Assay. […]
# For the assay, INS-1E cells were plated at confluence in 96-well plates (Costar 3610) and allowed to recover for 4 days in normal growth media. […] The plates were incubated at room temperature for 1 hour and then fluorescence intensity was measured at 665 nm. Cyclic AMP concentrations were determined against a standard curve.
substance,measurement,setting,value
"GLP-1 (7-36) amide: GLP-1 (7-36) amide, GLP-1 peptide of the background section (HAEGTFTSDVSSYLEGQAAKEFIAWLVKGR-NH2; UniProt P01275 98-127, looked up)",time action,[1],about 50 minutes
"GLP-1: Glucagon like peptide-1, peptide secreted from the L-cells of the intestine; given as six-week infusion (HAEGTFTSDVSSYLEGQAAKEFIAWLVKGRG-NH2; listed as Homo sapiens)",fasting and 8-hour mean plasma glucose levels,[2]; six-week infusion,lowered
same,β-cell function,[2],improvement
His-[D-Ala]-Glu-Gly-Thr-Phe-Thr-Ser-Asp-Val-Ser-Ser-Tyr-Leu-Glu-Gly-Gln-Ala-Ala-Lys-Glu-Phe-Ile-Ala-Trp-Leu-Val-Lys-Gly-Arg-Gly-(N-3-aminopropyl)-PEG3-NH—CO—CH2—NH—NH2 [Peptide 1],bioactivity: ability to stimulate cAMP compared to wild-type GLP-1,[3],no loss in bioactivity
